target: T1, histamine H3 receptor (Homo sapiens, UniProt Q9Y5N1); experiment: Histamine H3 functional antagonist assay (GTPγS SPA on membranes); format: biochemical; conditions: membranes of CHO K1 cells expressing human histamine H3; [35S]GTPγS; histamine 0.3 μM
T1 construct: expressed in transfected cells; host or cells: CHO K1 cells carrying pSwitch, transfected with pGeneH3, mifepristone-induced; clone 3H3; membrane preparation
Protocol: A membrane preparation containing histamine H3 receptors may be prepared in accordance with the following procedures:
Ligated DNA was transformed into competent DH5α E. coli host bacterial cells and plated onto Luria Broth (LB) agar containing Zeocin™ (an antibiotic which allows the selection of cells expressing the sh ble gene which is present on pGene and pSwitch) at 50 μg ml^−1. Colonies containing the re-ligated plasmid were identified by restriction analysis. DNA for transfection into mammalian cells was prepared from 250 ml cultures of the host bacterium containing the pGeneH3 plasmid and isolated using a DNA preparation kit (Qiagen Midi-Prep) as per manufacturers guidelines (Qiagen).
CHO K1 cells previously transfected with the pSwitch regulatory plasmid (InVitrogen) were seeded at 2×10e6 cells per T75 flask in Complete Medium, containing Hams F12 (GIBCOBRL, Life Technologies) medium supplemented with 10% v/v dialysed foetal bovine serum, L-glutamine, and hygromycin (100 μg ml^−1), 24 hours prior to use. Plasmid DNA was transfected into the cells using Lipofectamine plus according to the manufacturers guidelines (InVitrogen). 48 hours post transfection cells were placed into complete medium supplemented with 500 μg ml^−1 Zeocin™.
10-14 days post selection 10 nM Mifepristone (InVitrogen), was added to the culture medium to induce the expression of the receptor. […] Approximately 1×10e7 cells were examined for receptor expression by staining with a rabbit polyclonal antibody, 4a, raised against the N-terminal domain of the histamine H3 receptor, incubated on ice for 60 minutes, followed by two washes in sorting medium. […] Following two further washes with Sorting Medium, cells were filtered through a 50 μm Filcon™ (BD Biosciences) and then analysed on a FACS Vantage SE Flow Cytometer fitted with an Automatic Cell Deposition Unit. […] Positively stained cells were sorted as single cells into 96-well plates, containing Complete Medium containing 500 μg ml^−1 Zeocin™ and allowed to expand before reanalysis for receptor expression via antibody and ligand binding studies. […]

T1 sequence (Q9Y5N1 whole entry): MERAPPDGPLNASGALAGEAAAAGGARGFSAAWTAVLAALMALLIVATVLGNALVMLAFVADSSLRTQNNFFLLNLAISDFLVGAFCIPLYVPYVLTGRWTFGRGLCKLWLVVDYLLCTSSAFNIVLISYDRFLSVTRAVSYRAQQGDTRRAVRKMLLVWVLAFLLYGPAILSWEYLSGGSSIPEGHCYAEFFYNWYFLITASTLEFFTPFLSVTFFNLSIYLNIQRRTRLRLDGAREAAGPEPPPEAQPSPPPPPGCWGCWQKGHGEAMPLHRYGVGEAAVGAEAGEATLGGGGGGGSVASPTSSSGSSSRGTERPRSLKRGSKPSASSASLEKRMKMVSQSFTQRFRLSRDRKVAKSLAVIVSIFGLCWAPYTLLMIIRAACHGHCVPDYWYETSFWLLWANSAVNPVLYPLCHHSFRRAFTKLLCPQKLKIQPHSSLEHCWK

Compound	Kb [nM]
CC(C)N1CCC(Oc2ccc(C3CCN(C(=O)c4ccc(C(F)(F)F)nc4)CC3)cc2)CC1 [Example E52, 5-{[4-(4-{[1-(1-Methylethyl)-4-piperidinyl]oxy}phenyl)-1-piperidinyl]carbonyl}-2-(trifluoromethyl)pyridine]	< 1
CC(C)N1CCC(Oc2ccc(C3CCN(C(=O)c4ccc(C#N)cc4)CC3)cc2)CC1 [Example E12, 4-{[4-(4-{[1-(1-Methylethyl)-4-piperidinyl]oxy}phenyl)-1-piperidinyl]carbonyl}benzonitrile]	< 1
CC(C)N1CCC(Oc2ccc(C3CCN(C(=O)c4ccc(C#N)nc4)CC3)cc2)CC1 [Example E51, 5-{[4-(4-{[1-(1-Methylethyl)-4-piperidinyl]oxy}phenyl)-1-piperidinyl]carbonyl}-2-pyridinecarbonitrile]	< 1

From patent US20060205774A1, “4-(4-(Heterocyclylakoxy) phenyl-1-(heterocyclyl-carbonyl) piperidine derivavites and related compounds as histamine h3 antagonists for the treatment of neurological diseases such as alzheimer's” (priority 2003, published 2006)
